Experimental data: PMC10172927, “Maturation of the malarial phosphatidylserine decarboxylase is mediated by high affinity binding to anionic phospholipids” (The Journal of Biological Chemistry, 2023)

Target: T1, PkPSD proenzyme; MBP-His6-Δ34PkPSD(S308A) (Plasmodium knowlesi, UniProt B3L2V1, S308A)
T1 construct: gene PKH_072580
Assay: biochemical

T1 sequence (B3L2V1 35-354 S308A): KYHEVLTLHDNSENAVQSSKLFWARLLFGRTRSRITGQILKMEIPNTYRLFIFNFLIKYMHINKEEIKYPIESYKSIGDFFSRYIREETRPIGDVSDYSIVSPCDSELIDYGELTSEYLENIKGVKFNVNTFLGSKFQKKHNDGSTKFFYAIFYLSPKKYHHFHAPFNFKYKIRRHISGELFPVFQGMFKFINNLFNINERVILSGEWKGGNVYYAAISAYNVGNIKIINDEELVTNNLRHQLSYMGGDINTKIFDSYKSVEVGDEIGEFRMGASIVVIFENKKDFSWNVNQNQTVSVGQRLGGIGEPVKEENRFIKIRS

Structure (SMILES)	Kd
CCCCCCCC/C=C\CCCCCCCC(=O)OC[C@H](COP(=O)(O)OCC(O)CO)OC(=O)CCCCCCC/C=C\CCCCCCCC (some centres unmarked) [DOPG]	66.4 nM
CCCCCCCC/C=C\CCCCCCCC(=O)OC[C@H](COP(=O)(O)OC[C@H](N)C(=O)O)OC(=O)CCCCCCC/C=C\CCCCCCCC [DOPS]	80.4 nM
